Melting point data for 62 compounds are collected here from a melting point compilation (Tetko et al.; mined from patent text by program, amines drawn as free bases though some values may be those of a salt).

Each structure is given as a SMILES string. Starred links: 1 amine or outer side, 2 acyl side, 3 side chain; linkers in the order of their positions; H or OH if unused. Non-standard residues stand in square brackets, D forms with d. Residues, ends and D or L forms follow the SMILES beside them. *: point of attachment. γGlu = O=C(O)[CH](CCC(=O)[*:2])N[*:1]; Lauroyl = CCCCCCCCCCCC(=O)*

Take `CCCCCCCCCCCC(=O)NC(C)C(=O)NC(CCC(=O)NC(CCCCN)C(=O)O)C(=O)O` (configuration not stated) (Lauroyl-Ala-[γGlu]-Lys-OH; configuration not given here): the melting point (as a rule, the temperature of the solid-liquid transition) is 180 to 186 °C.
The figure for `CC(=O)OC1=C(c2ccc(C)cc2)Sc2cc(C)ccc2NC1=O` is 233 to 235 °C; for `CC(C)SC1=N/C(=C\c2c[nH]c3ncc(Cl)cc23)C(=O)N1` it is 291 to 293 °C.
The same measure for `Cc1ccc(-c2cccc(/C=C/C(=O)Nc3ccc(-c4ccccn4)cc3)c2)cc1`: 220 to 222 °C; for `COc1ccc(C(C#Cc2ccccc2)CC(=O)N(C)C)cc1OC1CCCC1` (racemic): 87 to 89 °C; for `CCC(C)(Cc1c[nH]c2ccccc12)NC=O` (configuration not stated): 122 to 124 °C.
The same measure for `Cc1cc(-c2cc(C(F)(F)F)nn2-c2ccc(S(N)(=O)=O)c(F)c2)ccc1-c1cscn1`: 125 to 127 °C; for `CCOC(=O)N1CCC(n2nnnc2CCC(C)Oc2ccc3nc4[nH]c(=O)[nH]c4cc3c2)CC1` (configuration not stated): 233 to 236 °C.
`Cc1ccc2c(c1)N=C(N1CCN(C)CC1)c1cccc3ccn-2c13` came in with a melting point of 202 to 204 °C.
On to `CC(C)(O)c1cc(Cn2cncn2)cc(C(C)(C)C#N)c1`, for which the melting point is 152 to 154 °C.
The figure for `CCNC(=O)Nc1ccc(C(O)(C(F)(F)F)C(F)(F)F)cc1Br` is 125 to 127 °C.
`O=C(c1cc(Cl)ccc1Cl)c1ccccc1I` returned a melting point of 64 to 66 °C.
As for `CC1(C)CCC(=O)Nc2cc(OCCCCN3CCN(c4cccc(Cl)c4Cl)CC3)ccc21`, the melting point lay in the range of 106 to 108 °C.
The figure for `COC(=O)CN1C(=O)C(C(C)C)Sc2ccccc21` (configuration not stated) is 81 to 82 °C.
`O=C(O)CCC(O)c1ccc(-c2ccc(F)cc2F)cc1` (configuration not stated): the melting point fell in the range of 111 to 112 °C.
`O=C(N1CCCC1)N1CCN(Cc2ccc3c(c2)-c2[nH]nc(-c4ccsc4)c2C3)CC1` returned a melting point of 214 to 216 °C.
The same measure for `O=C(OC1CCN(Cc2ccc(Cl)cc2)CC1)c1ccc(Cl)cc1`: 67 to 69 °C; for `O=C1C=Cc2ccccc2C1(Cc1ccncc1)Cc1ccncc1`: 111 to 112 °C.
The figure for `Cc1ccc(CN2C(=O)C3(COc4cc5c(cc43)OCO5)c3ccccc32)o1` (configuration not stated) is 117 to 119 °C; for `O=[N+]([O-])c1cc(-c2ccco2)ccc1Nc1cccc(-n2ccnc2)c1` it is 147 to 149 °C; for `COc1ccc2oc(Cn3cnc4c(N)ncnc43)c(-c3ccccc3)c(=O)c2c1` it is 197 to 198 °C.
Take `NC(=O)c1sccc1SSc1ccsc1C(N)=O`: the melting point lay within 222 to 223 °C.
The figure for `COCCNCc1cccc(OCCCNc2nc(N)nn2C)c1` is 61 to 62.5 °C; for `O=C(c1ccc([N+](=O)[O-])cc1)N1CCc2cc(S(=O)(=O)n3cc(-c4ccccc4)[nH]c3=O)ccc21` it is 245 to 246 °C; for `Nc1ccc(-c2nc(-c3ccco3)no2)c(Cl)c1` it is 175 to 176 °C.
The figure for `NNc1cc2c(nn1)CCN(C(=O)c1ccc(Br)cc1)C2` is 192 to 195 °C; for `COc1cc(OC)cc(Oc2ncccc2OCCCc2ccncc2O)c1` it is 172 to 178 °C; for `CCOC(=O)c1c(-c2ccccc2Cl)c2cc(CC)sc2n(C)c1=O` it is 105 to 106 °C.
In the case of `CCN(CC)C(=S)c1cccc(F)c1[Si](C)(C)C`, the melting point is 71 to 73 °C.
The same measure for `COc1ccc(Cc2n[nH]c3c2c(=O)n(-c2ccccc2)c2ncccc32)c(OC)c1`: 266 to 267 °C.
The same measure for `NC(=O)CN(C(=O)CCCOc1ccc([N+](=O)[O-])c(C=O)c1)C1CCCCC1`: 104 to 105 °C; for `CC1OC(n2cnc3c(Nc4ccccc4)ccnc32)C(O)C1O` (configuration not stated): 219 °C; for `COC(=O)Cc1c(OC)ncnc1Oc1cccc(C(C)=O)c1`: 65 to 67 °C.
The same measure for `COc1ccc(-c2noc3c2CCC(C(=O)O)CC3)cc1` (configuration not stated): 147 to 148 °C; for `C[C@H](N)Cn1ncc2ccc3oc(C(N)=O)nc3c21`: 60 to 65 °C.
On to `O=C(c1ccccc1Cl)c1cc(Cl)cc(Br)c1I`, for which the melting point fell in the range of 86 to 87 °C.
The figure for `NC(=O)c1sc2nccc(N3CCCN(c4ccc(Cl)nn4)CC3)c2c1N` is 232 to 234 °C; for `CSC(C(=O)O)c1ccsc1` (configuration not stated) it is 73.5 to 74 °C.
Regarding `CC(=O)Nc1c([N+](=O)[O-])cc(Br)cc1[N+](=O)[O-]`, the melting point fell in the range of 238 to 239 °C.
With `COC12CC(CCN3CCC(c4c[nH]c5ccccc45)CC3)CN(C)C1Cc1c[nH]c3cccc2c13` (configuration not stated), the melting point lay in the range of 153 to 156 °C.
In the case of `C[C@H](NC(=O)COc1ccc2c(-c3ccccc3)nn(C)c2n1)c1ccccc1`, the melting point is 55 to 56 °C.
As to `BrC12CCCC(C1)C1CCC2C1` (configuration not stated), the melting point lay within 57.5 to 58.5 °C.
For the compound `Cc1noc(NC(=O)N2CCN(c3nccc(-c4ccc(F)cc4F)n3)CC2)c1C`, the melting point lay within 197 to 198 °C.
The figure for `C=CCc1c(OC(C)=O)c(C)cc2ccc(=O)oc12` is 110 to 111 °C.
With `Clc1ccc(CC2(n3cncn3)CC2)cc1`, the melting point lay in the range of 67 to 68 °C.
The same measure for `Cn1cc(C2=C(c3cn(C)c4ccc([N+](=O)[O-])cc34)C(=O)NC2=O)c2ccccc21`: 282 to 284 °C; for `Cn1cnc(S(=O)(=O)Nc2ccc(OCCN3CCN(c4nsc5ccccc45)CC3)cc2)c1`: 176 °C; for `O=C1CN(Cc2cccc(I)c2)S(=O)(=O)N1`: 101 to 103 °C.
The figure for `CCOC(=O)c1ccnnc1NC(=O)Cc1c(F)cc(F)cc1F` is 135 °C; for `N=C(NCc1c[nH]c2ccccc12)C(Cl)(Cl)Cl` it is 136 to 138 °C.
The figure for `Cc1cc(Cl)ccc1N1CCCN(C)C1=S` is 143 to 145 °C.
In turn, `COCCn1cc2c(C3C(=O)Nc4ccc(Br)cc43)nc(NCCC3CCNCC3)nc2n1` (configuration not stated) gave a melting point of 248 to 251 °C.
For `CCCCNC(=O)NS(=O)(=O)c1cc(C(F)(F)F)ccc1S(=O)(=O)N(C)C`, the melting point is 128 to 130 °C.
The figure for `Cc1ccc(-c2ccc3c(c2)C=C(C(=O)Nc2ccc(CSc4ccccc4)cc2)CCO3)cc1` is 176 to 177 °C.
The figure for `CC[C@H]1COC(=O)N1c1nc(-c2ccc(C#N)cc2)c(C#N)s1` is 201 to 203 °C.
The same measure for `CCN(CC)Cc1ccc2nc(-c3ccccc3F)cc(OCc3ccccc3)c2c1`: 51.2 to 51.5 °C; for `COc1ccc(Cl)cc1C(=N)Nc1cc(Cl)cc(NC(=O)/C=C/c2ccccc2Cl)c1`: 226 to 228 °C; for `CC(=O)Oc1ccc2c(=O)c(C=O)coc2c1`: 157 to 159 °C.
`CCC(C)(C)c1ccc(OCCCC(=O)Nc2ccc(OC)c(NC(=O)CC(=O)C3(C)COC(C)(C)OC3)c2)c(C(C)(C)CC)c1` registered a melting point of 128 to 130 °C.
Regarding `CC(C)C(NS(=O)(=O)c1ccc(Cl)s1)c1cccn1Cc1ccccc1` (configuration not stated), the melting point was in the range of 102 to 103 °C.
The same measure for `CCc1cc(Nc2ccc([N+](=O)[O-])cc2)n2nccc2n1`: 158 to 160 °C.
The figure for `CC(C)(CO)NS(=O)(=O)c1cc(NC(=O)c2cnn3c(C4CC4)cc(-c4ccc(Cl)cc4)nc23)c(Cl)s1` is 238 to 241 °C.
